{"source": "patent US12545659B2", "about": "“IRAK degraders and uses thereof” (Kymera Therapeutics, Inc., priority 2019, dated 2026)", "data": [{"biological_target": "T1, IRAK4 (Homo sapiens, UniProt Q9NWZ3)", "T1 construct": "endogenous in cells; host or cells: OCI-LY10", "T1 sequence (Q9NWZ3 1-460)": "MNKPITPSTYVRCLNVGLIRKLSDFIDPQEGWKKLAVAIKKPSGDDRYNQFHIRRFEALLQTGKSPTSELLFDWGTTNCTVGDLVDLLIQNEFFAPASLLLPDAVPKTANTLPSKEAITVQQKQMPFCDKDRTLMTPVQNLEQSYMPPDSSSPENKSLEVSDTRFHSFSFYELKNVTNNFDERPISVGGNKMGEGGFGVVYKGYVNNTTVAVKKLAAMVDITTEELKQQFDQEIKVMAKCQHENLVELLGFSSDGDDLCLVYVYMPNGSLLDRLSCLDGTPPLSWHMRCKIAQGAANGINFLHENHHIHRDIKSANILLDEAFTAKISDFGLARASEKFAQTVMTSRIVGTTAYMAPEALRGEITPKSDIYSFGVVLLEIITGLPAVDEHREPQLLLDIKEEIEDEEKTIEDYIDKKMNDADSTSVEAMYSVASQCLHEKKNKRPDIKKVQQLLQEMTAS", "experiment": "IRAK4 MSD Degradation in OCI-LY10", "format": "cell-based", "conditions": "OCI-LY10 cells, 4 hrs incubation, read-out: IRAK4 degradation in OCI-LY10 at 4 hrs: DC50", "in_short": "(§1)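 OCI-LY10 cells treated with 8-dose, 1:3 dilution series (top final 1 to 10 μM) for 4 to 24 h at 37 °C, 5% CO2. Lysate IRAK4 quantified by MSD sandwich immunoassay (mouse 2H9 capture, rabbit Y279 detection, SULFO-TAG anti-rabbit); DC50 from three-parameter logistic fit.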", "units": {"DC50": "nM"}, "values": [{"compound": "CN(C[C@H]1CC[C@H](n2cc3cc(NC(=O)c4cccc(C(F)(F)F)n4)c(C(C)(C)O)cc3n2)CC1)C1CCN(c2ccc3c(c2)n(C)c(=O)n3C2CCC(=O)NC2=O)CC1", "note": "(stereo partly shown) [I-75]", "DC50": "< 50"}, {"compound": "COc1cc2nn([C@H]3CC[C@H](CN4CCN(c5ccc6c(c5)n(C)c(=O)n6C5CCC(=O)NC5=O)CC4)CC3)cc2cc1NC(=O)c1cccc(C(F)(F)F)n1", "note": "(stereo partly shown) [I-102]", "DC50": "< 50"}, {"compound": "Cn1c(=O)n(C2CCC(=O)NC2=O)c2cccc(CN3CC4(CCN(C[C@H]5CC[C@H](n6cc7cc(NC(=O)c8cccc(C(F)(F)F)n8)c(C(C)(C)O)cc7n6)CC5)CC4)C3)c21", "note": "(stereo partly shown) [I-57]", "DC50": "< 50"}, {"compound": "COc1cc2nn([C@H]3CC[C@H](CN4CCC(c5cccc6c5n(C)c(=O)n6C5CCC(=O)NC5=O)CC4)CC3)cc2cc1NC(=O)c1cccc(C(C)(C)F)n1", "note": "(stereo partly shown) [I-114]", "DC50": "50 to 100"}, {"compound": "Cn1c(=O)n(C2CCC(=O)NC2=O)c2cccc(CCC3CC4(CCN(C[C@H]5CC[C@H](n6cc7cc(NC(=O)c8cccc(OC(F)(F)F)n8)c(C(C)(C)O)cc7n6)CC5)CC4)C3)c21", "note": "(stereo partly shown) [I-108]", "DC50": "50 to 100"}, {"compound": "CN(C[C@H]1CC[C@H](n2cc3cc(NC(=O)c4cnn5cccnc45)c(C(C)(C)O)cc3n2)CC1)C1CCN(Cc2cccc3c2n(C)c(=O)n3C2CCC(=O)NC2=O)CC1", "note": "(stereo partly shown) [I-50]", "DC50": "< 50"}, {"compound": "COc1cc2nn([C@H]3CC[C@H](CN4CC(c5cccc6c5n(C)c(=O)n6C5CCC(=O)NC5=O)C4)CC3)cc2cc1NC(=O)c1cccc(C(F)(F)F)n1", "note": "(stereo partly shown) [I-111]", "DC50": "50 to 100"}, {"compound": "Cn1c(=O)n(C2CCC(=O)NC2=O)c2ccc(C3CCN(C[C@H]4CC[C@H](n5cc6cc(NC(=O)c7cccc(C(F)(F)F)n7)c(C(F)F)cc6n5)CC4)CC3)cc21", "note": "(stereo partly shown) [I-261]", "DC50": "< 50"}, {"compound": "CN(C[C@H]1CC[C@H](n2cc3cc(NC(=O)c4ccccn4)c(C(C)(C)O)cc3n2)CC1)C1CCN(c2cccc3c2n(C)c(=O)n3C2CCC(=O)NC2=O)CC1", "note": "(stereo partly shown) [I-84]", "DC50": "< 50"}, {"compound": "Cn1c(=O)n(C2CCC(=O)NC2=O)c2cccc(C3CN(C[C@H]4CC[C@H](n5cc6cc(NC(=O)c7cccc(C(F)(F)F)n7)c(C(F)F)cc6n5)CC4)C3)c21", "note": "(stereo partly shown) [I-104]", "DC50": "50 to 100"}, {"compound": "Cn1c(=O)n(C2CCC(=O)NC2=O)c2cccc(CCC3CC4(CCN(C[C@H]5CC[C@H](n6cc7cc(NC(=O)c8ccccn8)c(C(C)(C)O)cc7n6)CC5)CC4)C3)c21", "note": "(stereo partly shown) [I-81]", "DC50": "50 to 100"}, {"compound": "CN(C[C@H]1CC[C@H](n2ncc3cc(NC(=O)c4cccc(C(F)(F)F)n4)c(C(C)(C)O)cc32)CC1)C1CCN(Cc2cccc3c2n(C)c(=O)n3C2CCC(=O)NC2=O)CC1", "note": "(stereo partly shown) [I-34]", "DC50": "500 to 1000"}, {"compound": "Cn1c(=O)n(C2CCC(=O)NC2=O)c2cccc(C3CN(C[C@H]4CC[C@H](n5cc6cc(NC(=O)c7cccc(C(C)(C)F)n7)c(C(F)F)cc6n5)CC4)C3)c21", "note": "(stereo partly shown) [I-113]", "DC50": "50 to 100"}, {"compound": "Cn1c(=O)n(C2CCC(=O)NC2=O)c2cccc(N3[C@@H]4CC[C@H]3CN(C[C@H]3CC[C@H](n5cc6cc(NC(=O)c7cccc(C(F)(F)F)n7)c(C(C)(C)O)cc6n5)CC3)C4)c21", "note": "(stereo partly shown) [I-285]", "DC50": "50 to 100"}, {"compound": "COc1cc2nn([C@H]3CC[C@H](CN(C)CC#Cc4cccc5c4n(C)c(=O)n5C4CCC(=O)NC4=O)CC3)cc2cc1NC(=O)c1cccc(C(F)(F)F)n1", "note": "(stereo partly shown) [I-134]", "DC50": "50 to 100"}, {"compound": "CN(CC1CCN(c2cccc3c2C(=O)N(C2CCC(=O)NC2=O)C3=O)CC1)C[C@H]1CC[C@H](n2cc3cc(NC(=O)c4cccc(C(F)(F)F)n4)c(C(C)(C)O)cc3n2)CC1", "note": "(stereo partly shown) [I-40]", "DC50": "50 to 100"}, {"compound": "Cn1c(=O)n(C2CCC(=O)NC2=O)c2cccc(C[C@H]3C[C@H](OC4CCN(C[C@H]5CC[C@H](n6cc7cc(NC(=O)c8cccc(C(F)(F)F)n8)c(C(C)(C)O)cc7n6)CC5)CC4)C3)c21", "note": "(stereo partly shown) [I-203]", "DC50": "< 50"}, {"compound": "Cn1c(=O)n(C2CCC(=O)NC2=O)c2cccc(CCC3CCN(C[C@H]4CC[C@H](n5cc6cc(NC(=O)c7cccc(C(F)(F)F)n7)c(C(F)F)cc6n5)CC4)CC3)c21", "note": "(stereo partly shown) [I-94]", "DC50": "< 50"}, {"compound": "Cn1c(=O)n(C2CCC(=O)NC2=O)c2cccc(NC[C@H]3CC[C@H](n4cc5cc(NC(=O)c6cccc(C(F)(F)F)n6)c(C(C)(C)O)cc5n4)CC3)c21", "note": "(stereo partly shown) [I-147, N-[2-[4-[[[1-(2,6-dioxo-3-piperidyl)-3-methyl-2-oxo-benzimidazol-4-yl]amino]methyl]cyclohexyl]-6-(1-hydroxy-1-methyl-ethyl)indazol-5-yl]-6-(trifluoromethyl)pyridine-2-carboxamide]", "DC50": "500 to 1000"}, {"compound": "CN(C[C@H]1CC[C@H](n2cc3cc(NC(=O)c4cccc(C5CC5)n4)c(C(C)(C)O)cc3n2)CC1)C1CCN(Cc2cccc3c2n(C)c(=O)n3C2CCC(=O)NC2=O)CC1", "note": "(stereo partly shown) [I-322]", "DC50": "< 50"}]}, {"biological_target": "T1, IRAK4", "experiment": "IRAK4 MSD Degradation in OCI-LY10", "format": "cell-based", "conditions": "OCI-LY10 cells, 24 hrs incubation, read-out: IRAK4 degradation in OCI-LY10 at 24 hrs: DC50", "in_short": "as §1", "units": {"DC50": "nM"}, "values": [{"compound": "C[C@]1(CN2CCC3(CC2)CC(CCNc2cccc4c2C(=O)N(C2CCC(=O)NC2=O)C4=O)C3)Cc2cc(NC(=O)c3cccc(C(F)(F)F)n3)c(N3CCOCC3)cc2O1", "note": "(stereo partly drawn) [I-326, N-[(2R)-2-[[2-[2-[[2-(2,6-dioxo-3-piperidyl)-1,3-dioxo-isoindolin-4-yl]amino]ethyl]-7-azaspiro[3.5]nonan-7-yl]methyl]-2-methyl-6-morpholino-3H-benzofuran-5-yl]-6-(trifluoromethyl)pyridine-2-carboxamide]", "DC50": "500 to 1000"}, {"compound": "CN(CCCO[C@H]1C[C@H](Nc2cccc3c2C(=O)N(C2CCC(=O)NC2=O)C3=O)C1)C[C@H]1CC[C@H](n2cc3cc(NC(=O)Cc4cccc(C(F)(F)F)n4)c(C(C)(C)O)cc3n2)CC1", "note": "(stereo partly shown) [I-70]", "DC50": "500 to 1000"}, {"compound": "C[C@]1(CN2CCC3(CC2)CC(CCNc2cccc4c2C(=O)N(C2CCC(=O)NC2=O)C4=O)C3)Cc2cc(NC(=O)c3cnn4cccnc34)c(N3CCOCC3)cc2O1", "note": "(stereo partly drawn) [I-196, N-[(2R)-2-[[2-[2-[[2-(2,6-dioxo-3-piperidyl)-1,3-dioxo-isoindolin-4-yl]amino]ethyl]-7-azaspiro[3.5]nonan-7-yl]methyl]-2-methyl-6-morpholino-3H-benzofuran-5-yl]pyrazolo[1,5-a]pyrimidine-3-carboxamide]", "DC50": "500 to 1000"}, {"compound": "CC(C)(O)COc1cc2nn([C@H]3CC[C@H](CN4CCC5(CC4)CC(CCNc4cccc6c4C(=O)N(C4CCC(=O)NC4=O)C6=O)C5)CC3)cc2cc1NC(=O)c1cccc(C(C)(F)F)n1", "note": "(stereo partly shown) [I-119]", "DC50": "50 to 100"}, {"compound": "COc1cc2nn([C@H]3CC[C@H](CN4CCC5(CC4)CCN(c4cccc6c4C(=O)N(C4CCC(=O)NC4=O)C6=O)CC5)CC3)cc2cc1NC(=O)c1cccc(C(F)(F)F)n1", "note": "(stereo partly shown) [I-220]", "DC50": "50 to 100"}, {"compound": "CC(C)(O)c1cc2nn([C@H]3CC[C@H](CN4CCC5(CC4)CC(Nc4cccc6c4C(=O)N(C4CCC(=O)NC4=O)C6=O)C5)CC3)cc2cc1NC(=O)c1cccc(S(F)(F)(F)(F)F)n1", "note": "(stereo partly shown) [I-291]", "DC50": "< 50"}, {"compound": "COc1cc2nn([C@H]3CC[C@H](CN4CCC(O[C@H]5CC[C@H](CNc6cccc7c6C(=O)N(C6CCC(=O)NC6=O)C7=O)CC5)CC4)CC3)cc2cc1NC(=O)c1cccc(C(F)(F)F)n1", "note": "(stereo partly shown) [I-69]", "DC50": "50 to 100"}, {"compound": "CC(C)(O)c1cc2nn([C@H]3CC[C@H](CN4CCC5(CC4)CC(Nc4cccc6c4C(=O)N(C4CCC(=O)NC4=O)C6=O)C5)CC3)cc2cc1NC(=O)c1cccc(S(F)(F)(F)(F)F)c1", "note": "(stereo partly shown) [I-123]", "DC50": "50 to 100"}, {"compound": "COc1cc2nn([C@H]3CC[C@H](CN4CCC5(CC4)CC(CCNc4cccc6c4C(=O)N(C4CCC(=O)NC4=O)C6=O)C5)CC3)cc2cc1NC(=O)c1ccc(F)c(C)n1", "note": "(stereo partly shown) [I-121]", "DC50": "50 to 100"}, {"compound": "COc1cc2nc([C@H]3CC[C@H](CN4CC5(CC(CCNc6cccc7c6C(=O)N(C6CCC(=O)NC6=O)C7=O)C5)C4)CC3)oc2cc1NC(=O)c1cccc(C(F)(F)F)n1", "note": "(stereo partly shown) [I-180]", "DC50": "100 to 500"}, {"compound": "COc1cc2nn([C@H]3CC[C@H](CN4CCC5(CC4)CC(CNc4cccc6c4C(=O)N(C4CCC(=O)NC4=O)C6=O)C5)CC3)cc2cc1NC(=O)c1cccc(C(C)(C)F)n1", "note": "(stereo partly shown) [I-232]", "DC50": "50 to 100"}]}]}
